Test results: patent publication US20100280975A1, “SYSTEMS FOR CLINICAL TRIALS” (WisTa Laboratories Ltd., priority 2007, published 2010)
Where “and” joins values, the source holds several entries; their conditions need not be identical. Equal values may be shown once.

Legend:
CDR-moderate subjects = test: rember™ study: NPI (Neuropsychiatric Inventory) over 50 weeks; format: in vivo, human; conditions: vs placebo-low arm
[1] = Adverse effects in the rember™ trial; format: in vivo, human
Method: Thus subjects in the Least Exposed Dose arm (ie subjects switched to the low (100 mg) dose after 6 months) who continued to decline withdrew from the study largely after 24 weeks. […] However, biased withdrawal was not a factor in CDR-mild subjects in the same low (100 mg) comparator treatment arm. Therefore the primary driver of non-random withdrawal in the rember™ trial was the experience of continuing rapid decline which was most apparent in the CDR-moderate group.

[2] = system: mild and moderate dementia of the Alzheimer type; test: rember™ study: ADAS-cog change over 50 weeks, linear imputation for fit-survivor bias; format: in vivo, human; conditions: for Estimated change from baseline, Least Exposed Dose comparator method / Estimated effect size, Least Exposed Dose comparator method: 50 weeks; for Estimated effect size, Least Exposed Dose comparator method: vs placebo-low arm; for Effect size inferred from least-squares analysis at 50 weeks / Effect size inferred from mixed effects analysis at 50 weeks: vs inferred placebo
Text: A method has been developed by the inventors which has not been described previously which permits unbiased correction for the fit-survivor phenomenon. […] If a patient who was CDR-moderate at baseline discontinued medication at some time after 24 weeks, a straight line is fitted to the graph of available ADAS-cog change scores against visit-date for the available data for each subject. The line was not forced to pass through zero, to allow for placebo effect, and because the first visit is subject to random fluctuations. The use of a straight-line fit per-subject is supported by the large studies of Stern et al., (1994), Doraiswamy et al., (2001) and Winblad, B., Wimo, A., Engedal, K., Soininen, H., Verhey, F., Waldemar, G., Wetterholm, A. L., Haglund, A., Zhang, R., Schindler, R. (2006) 3-year study of donepezil therapy in Alzheimer's disease: effects of early and continuous therapy. […] The same approach can be applied to other outcome measures for which there were assessments scheduled after 24 weeks.
Subjects originally randomized to placebo were switched to the low (100 mg) dose bd after 24 weeks. This is referred to as the “placebo-low” treatment arm.
In this chart, the labelling conventions of “placlow” refers to subjects randomised to placebo and changed to low (100 mg) bd after 24 weeks, “low” refers to low (100 mg) dose tid, “30 mg” refers to 30 mg dose tid and “60 mg” refers to 60 mg dose tid.

[3] = system: mild and moderate dementia of the Alzheimer type; test: rember™ Phase 2 study: ADAS-cog change over 24 weeks
[4] = system: mild and moderate dementia of the Alzheimer type; test: Mild-brought-forward confirmatory analysis of ADAS-cog over 25 weeks; format: in vivo, human; conditions: for Mild-brought-forward CDR-mild effect size over 25 weeks / Mild-brought-forward CDR-moderate effect size over 25 weeks / Mild-brought-forward confirmatory analysis, overall effect size over 25 weeks: vs placebo/placebo-low; for Mild-brought-forward confirmatory analysis, overall change from baseline over 25 weeks: whole population, mixed-effects model
[5] = system: mild and moderate dementia of the Alzheimer type; test: rember™ study: MMSE over 50 weeks; format: in vivo, human
Text: Another standardised test is the Mini-Mental State Examination [MMSE] which was proposed as a simple and quickly administered method for grading cognitive function (Folstein M F, Folstein S E & McHugh P R. ‘Mini-mental state’. A practical method for grading the cognitive state of patients for the clinician. Journal of Psychiatric Research 1975 12 189-198.). The MMSE is the most widely used cognitive screening instrument for the detection of cognitive dysfunction due to dementia in geriatric and psychiatric patients (Tombaugh T N & McIntyre N J. The mini-mental state examination: a comprehensive review. Journal of the American Geriatric Society 1992 40 922-935). The MMSE evaluates orientation, memory, attention and language functions.
The mean decline observed over the 50-week study in placebo-treated subjects was 7.8 ADAS-cog units (FIG. 19). […] On the ADAS-cog scale, about 60% of subjects improved or stayed the same at 50 weeks. On the MMSE scale, 62% improved or stayed the same at 50 weeks. The odds of a patient not declining on either scale were about 3.4 times better at the 60 mg dose than on placebo-low. The corresponding effect sizes were −6.8 ADAS-cog units and 3.2 MMSE units over the 50-week trial.

[6] = ITT/LOCF, with interaction term, week 24, CDR-mild, 30 mg tid
[7] = ITT/LOCF, with interaction term, week 24, CDR-mild, 60 mg tid
[8] = ITT/LOCF, with interaction term, week 24, CDR-mild, low (100 mg) tid
[9] = ITT/LOCF, with interaction term, week 24, CDR-moderate, 30 mg tid
[10] = ITT/LOCF, with interaction term, week 24, CDR-moderate, 60 mg tid
[11] = ITT/LOCF, with interaction term, week 24, CDR-moderate, low (100 mg) tid
[12] = ITT/LOCF, without interaction term, week 24, 30 mg tid
[13] = ITT/LOCF, without interaction term, week 24, 60 mg tid
[14] = ITT/LOCF, without interaction term, week 24, low (100 mg) tid
[15] = ITT/OC, CDR-moderates, mixed-effects model, low (100 mg) tid
[16] = ITT/OC, with interaction term, week 24, CDR-mild, 30 mg tid
[17] = ITT/OC, with interaction term, week 24, CDR-mild, 60 mg tid
[18] = ITT/OC, with interaction term, week 24, CDR-mild, low (100 mg) tid
[19] = ITT/OC, with interaction term, week 24, CDR-moderate, 30 mg tid
[20] = ITT/OC, with interaction term, week 24, CDR-moderate, 60 mg tid
[21] = ITT/OC, with interaction term, week 24, CDR-moderate, low (100 mg) tid
[22] = ITT/OC, without interaction term, week 24, 30 mg tid
[23] = ITT/OC, without interaction term, week 24, 60 mg tid
[24] = ITT/OC, without interaction term, week 24, low (100 mg) tid

## CN(C)c1ccc2nc3ccc(=[N+](C)C)cc-3sc2c1 [rember™, methylthioninium chloride]
CDR-moderate subjects
  NPI carer-distress scale, best effect size over 50 weeks: −4.6 units
  NPI patient-disturbance scale, best effect size over 50 weeks: −9.2 units
[1]; low (100 mg) bd, second 6-months of the study
  adverse effects: adverse effects, most notably diarrhea
[1]; tid vs. bd dosing regimes
  haematological side effects: showed a clear dose-response profile
[2]; 60 mg dose
  initial symptomatic improvement at 15 weeks, ADAS-cog: 1.6 ADAS-cog units
[2]; 60 mg tid
  subjects improved or stayed the same on the ADAS-cog scale at 50 weeks: about 60%
  Estimated effect size, Least Exposed Dose comparator method: −5.71 ADAS-cog units
  Effect size inferred from least-squares analysis at 50 weeks: −6.50 ADAS-cog units
[2]; 30 mg tid
  Estimated change from baseline, Least Exposed Dose comparator method: 3.95 ADAS-cog units
  Estimated effect size, Least Exposed Dose comparator method: −2.80 ADAS-cog units
  Effect size inferred from least-squares analysis at 50 weeks: −4.37 ADAS-cog units
  Effect size inferred from mixed effects analysis at 50 weeks: −3.87 ADAS-cog units
[2]; low (100 mg) tid
  Estimated change from baseline, Least Exposed Dose comparator method: 4.00 ADAS-cog units
  Estimated effect size, Least Exposed Dose comparator method: −2.76 ADAS-cog units
  Effect size inferred from least-squares analysis at 50 weeks: −3.59 ADAS-cog units
  Effect size inferred from mixed effects analysis at 50 weeks: −4.04 ADAS-cog units
[3]; 60 mg tid, OC and LOCF analyses, 24 weeks, pooled CDR-mild and CDR-moderate
  effect size in the entire ITT population of mild and moderate AD: −1.0 to −1.2 ADAS-cog units
[3]; ITT/LOCF, with interaction term, 24-week time-point, CDR-mild, 60 mg tid
  Estimate, ADAS-cog change vs placebo, LM (ANCOVA) analysis: −0.20 ADAS-cog units
[3]; ITT/LOCF, with interaction term, 24-week time-point, CDR-mild, low (100 mg) tid
  Estimate, ADAS-cog change vs placebo, LM (ANCOVA) analysis: −0.79 ADAS-cog units
[3]; ITT/LOCF, with interaction term, 24-week time-point, CDR-moderate, 30 mg tid
  Estimate, ADAS-cog change vs placebo, LM (ANCOVA) analysis: −3.00 ADAS-cog units
[3]; ITT/LOCF, with interaction term, 24-week time-point, CDR-moderate, low (100 mg) tid
  Estimate, ADAS-cog change vs placebo, LM (ANCOVA) analysis: −0.40 ADAS-cog units
[3]; [6]
  Estimate, change in ADAS-cog score vs intercept, least squares: 0.46 ADAS-cog units
  Estimate, change in ADAS-cog score vs intercept, mixed effects: 0.46 ADAS-cog units
[3]; [7]
  Estimate, change in ADAS-cog score vs intercept, least squares: −0.73 ADAS-cog units
  Estimate, change in ADAS-cog score vs intercept, mixed effects: −0.73 ADAS-cog units
[3]; [8]
  Estimate, change in ADAS-cog score vs intercept, least squares: −0.18 ADAS-cog units
  Estimate, change in ADAS-cog score vs intercept, mixed effects: −0.18 ADAS-cog units
[3]; [9]
  Estimate, change in ADAS-cog score vs intercept, least squares: −1.05 ADAS-cog units
  Estimate, change in ADAS-cog score vs intercept, mixed effects: −1.05 ADAS-cog units
[3]; [10]
  Estimate, change in ADAS-cog score vs intercept, least squares: −3.70 ADAS-cog units
  Estimate, change in ADAS-cog score vs intercept, mixed effects: −3.70 ADAS-cog units
[3]; [11]
  Estimate, change in ADAS-cog score vs intercept, least squares: 1.06 ADAS-cog units
  Estimate, change in ADAS-cog score vs intercept, mixed effects: 1.06 ADAS-cog units
[3]; ITT/LOCF, without interaction term, 24-week assessment data only, 30 mg tid
  Estimate, ADAS-cog change vs placebo, LM (ANCOVA) analysis: −0.04 ADAS-cog units
[3]; ITT/LOCF, without interaction term, 24-week assessment data only, low (100 mg) tid
  Estimate, ADAS-cog change vs placebo, LM (ANCOVA) analysis: −0.78 ADAS-cog units
[3]; [12]
  Estimate, change in ADAS-cog score vs intercept (placebo), linear least squares: 0.04 ADAS-cog units
  Estimate, change in ADAS-cog score vs intercept (placebo), linear mixed effects: 0.04 ADAS-cog units
[3]; [13]
  Estimate, change in ADAS-cog score vs intercept (placebo), linear least squares: −1.18 ADAS-cog units
  Estimate, change in ADAS-cog score vs intercept (placebo), linear mixed effects: −1.18 ADAS-cog units
[3]; [14]
  Estimate, change in ADAS-cog score vs intercept (placebo), linear least squares: −0.03 ADAS-cog units
  Estimate, change in ADAS-cog score vs intercept (placebo), linear mixed effects: −0.03 ADAS-cog units
[3]; ITT/OC, CDR-moderates, mixed-effects model, 30 mg tid
  ADAS-cog change from baseline at 24 weeks: 1.03 ADAS-cog units
[3]; ITT/OC, CDR-moderates, mixed-effects model, 60 mg tid
  ADAS-cog change from baseline at 24 weeks: −0.36 ADAS-cog units
[3]; [15]
  ADAS-cog change from baseline at 24 weeks: 4.6 ADAS-cog units and 4.63 ADAS-cog units
  ADAS-cog effect size at 24 weeks (vs placebo): −0.42 ADAS-cog units
[3]; [16]
  Estimate, change in ADAS-cog score vs intercept, linear least squares: 0.43 ADAS-cog units
  Estimate, change in ADAS-cog score vs intercept, linear mixed effects: 0.33 ADAS-cog units
[3]; [17]
  Estimate, change in ADAS-cog score vs intercept, linear least squares: −0.66 ADAS-cog units
  Estimate, change in ADAS-cog score vs intercept, linear mixed effects: −0.77 ADAS-cog units
[3]; [18]
  Estimate, change in ADAS-cog score vs intercept, linear least squares: −0.05 ADAS-cog units
  Estimate, change in ADAS-cog score vs intercept, linear mixed effects: −0.21 ADAS-cog units
[3]; [19]
  Estimate, change in ADAS-cog score vs intercept, linear least squares: 1.11 ADAS-cog units
  Estimate, change in ADAS-cog score vs intercept, linear mixed effects: −1.09 ADAS-cog units
[3]; [20]
  Estimate, change in ADAS-cog score vs intercept, linear least squares: −2.74 ADAS-cog units
  Estimate, change in ADAS-cog score vs intercept, linear mixed effects: −3.23 ADAS-cog units
[3]; [21]
  Estimate, change in ADAS-cog score vs intercept, linear least squares: 0.99 ADAS-cog units
  Estimate, change in ADAS-cog score vs intercept, linear mixed effects: 1.13 ADAS-cog units
[3]; [22]
  Estimate, change in ADAS-cog score vs intercept (placebo), linear least squares: 0.00 ADAS-cog units
  Estimate, change in ADAS-cog score vs intercept (placebo), linear mixed effects: −0.07 ADAS-cog units
[3]; [23]
  Estimate, change in ADAS-cog score vs intercept (placebo), linear least squares: −0.95 ADAS-cog units
  Estimate, change in ADAS-cog score vs intercept (placebo), linear mixed effects: −1.13 ADAS-cog units
[3]; [24]
  Estimate, change in ADAS-cog score vs intercept (placebo), linear least squares: 0.08 ADAS-cog units
  Estimate, change in ADAS-cog score vs intercept (placebo), linear mixed effects: −0.04 ADAS-cog units
[3]; severity as interaction term, CDR-moderate, 60 mg dose
  mean effect sizes in moderate subjects over 24 weeks: −2.7 to −3.7 ADAS-cog units
[4]; 30 mg
  Mild-brought-forward CDR-mild change over 25 weeks: 3.07 ADAS-cog units
  Mild-brought-forward CDR-mild effect size over 25 weeks: −1.19 ADAS-cog units
  Mild-brought-forward CDR-moderate effect size over 25 weeks: 4.33 ADAS-cog units
  Mild-brought-forward confirmatory analysis, overall effect size over 25 weeks: −2.39 ADAS-cog units
  Mild-brought-forward confirmatory analysis, overall change from baseline over 25 weeks: 2.26 ADAS-cog units
[4]; 60 mg
  Mild-brought-forward CDR-mild change over 25 weeks: 1.07 ADAS-cog units
  Mild-brought-forward CDR-mild effect size over 25 weeks: −3.19 ADAS-cog units
  Mild-brought-forward CDR-moderate change over 25 weeks: 0.30 ADAS-cog units
  Mild-brought-forward CDR-moderate effect size over 25 weeks: −5.67 ADAS-cog units
  Mild-brought-forward confirmatory analysis, overall effect size over 25 weeks: −3.85 ADAS-cog units
  Mild-brought-forward confirmatory analysis, overall change from baseline over 25 weeks: 0.78 ADAS-cog units
[4]; low (100 mg)
  Mild-brought-forward CDR-mild change over 25 weeks: 3.60 ADAS-cog units
  Mild-brought-forward CDR-mild effect size over 25 weeks: −0.66 ADAS-cog units
  Mild-brought-forward CDR-moderate change over 25 weeks: 4.82 ADAS-cog units
  Mild-brought-forward CDR-moderate effect size over 25 weeks: −0.54 ADAS-cog units
  Mild-brought-forward confirmatory analysis, overall effect size over 25 weeks: −0.84 ADAS-cog units
  Mild-brought-forward confirmatory analysis, overall change from baseline over 25 weeks: 3.81 ADAS-cog units
[5]; 60 mg dose
  initial symptomatic improvement at 15 weeks, MMSE: 0.8 MMSE units
[5]; 60 mg tid
  effect size on MMSE over the 50-week trial: 3.2 MMSE units
  subjects improved or stayed the same on the MMSE scale at 50 weeks: 62%
